Source: the supplement of paper PMC4862054

Test system: HCC1937
Assay: normalised response (% of control), CellTox Green; higher = less cell death (100 = DMSO, 0 = benzethonium chloride kill control)
Settings: incubation time: 72 h
Procedure, shortened: (§1)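 Each value is the plate-normalised signal at one concentration of the series. Breast cancer cell lines (20 µl suspension) were incubated 72 h in 384-well plates with compound at 5 concentrations in 10-fold steps over a compound-specific 10,000-fold range. CellTox Green and then CellTiter-Glo were read, and each plate was scaled to 0.1 % DMSO (100) and a positive kill control (0).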

Compound	normalised response [%]
COc1cc2c(NC3CCN(C(C)C)CC3)nc(C3CCCCC3)nc2cc1OCCCN1CCCC1 [UNC0638] (1000 nM)	92.1
CCc1cncnc1N1CCN(Cc2nc3ccc(C(F)(F)F)cc3[nH]2)CC1 (1000 nM)	111
COc1cc2c(Oc3ccc4[nH]c(C)cc4c3F)ncnc2cc1OCCCN1CCCC1 [Cediranib] (100 nM)	123
CC[C@@H]1C(=O)N(C)c2cnc(Nc3ccc(C(=O)NC4CCN(C)CC4)cc3OC)nc2N1C1CCCC1 [BI 2536] (100 nM)	113
O=C(O)CCCCC(CCSCc1ccccc1)SCc1ccccc1 (centres undefined) [CPI-613] (1000 nM)	117
Nc1ncn([C@H]2C[C@H](O)[C@@H](CO)O2)c(=O)n1 [Decitabine] (1000 nM)	110

Test system: Hs578T
Assay: as above
Settings: incubation time: 72 h
Procedure, shortened: as §1

Compound	normalised response [%]
COc1cc2c(NC3CCN(C(C)C)CC3)nc(C3CCCCC3)nc2cc1OCCCN1CCCC1 [UNC0638] (1000 nM)	92.6
CCc1cncnc1N1CCN(Cc2nc3ccc(C(F)(F)F)cc3[nH]2)CC1 (1000 nM)	100
COc1cc2c(Oc3ccc4[nH]c(C)cc4c3F)ncnc2cc1OCCCN1CCCC1 [Cediranib] (100 nM)	97.6
CC[C@@H]1C(=O)N(C)c2cnc(Nc3ccc(C(=O)NC4CCN(C)CC4)cc3OC)nc2N1C1CCCC1 [BI 2536] (100 nM)	82
O=C(O)CCCCC(CCSCc1ccccc1)SCc1ccccc1 (centres undefined) [CPI-613] (1000 nM)	103
Nc1ncn([C@H]2C[C@H](O)[C@@H](CO)O2)c(=O)n1 [Decitabine] (1000 nM)	112

Test system: MCF-10A
Assay: as above
Settings: incubation time: 72 h
Procedure, shortened: as §1

Compound	normalised response [%]
COc1cc2c(NC3CCN(C(C)C)CC3)nc(C3CCCCC3)nc2cc1OCCCN1CCCC1 [UNC0638] (1000 nM)	104
CCc1cncnc1N1CCN(Cc2nc3ccc(C(F)(F)F)cc3[nH]2)CC1 (1000 nM)	111
COc1cc2c(Oc3ccc4[nH]c(C)cc4c3F)ncnc2cc1OCCCN1CCCC1 [Cediranib] (100 nM)	98.1
CC[C@@H]1C(=O)N(C)c2cnc(Nc3ccc(C(=O)NC4CCN(C)CC4)cc3OC)nc2N1C1CCCC1 [BI 2536] (100 nM)	36.6
O=C(O)CCCCC(CCSCc1ccccc1)SCc1ccccc1 (centres undefined) [CPI-613] (1000 nM)	92.8
Nc1ncn([C@H]2C[C@H](O)[C@@H](CO)O2)c(=O)n1 [Decitabine] (1000 nM)	78.9

Test system: MDA-MB-231
Assay: as above
Settings: incubation time: 72 h
Procedure, shortened: as §1

Compound	normalised response [%]
COc1cc2c(NC3CCN(C(C)C)CC3)nc(C3CCCCC3)nc2cc1OCCCN1CCCC1 [UNC0638] (1000 nM)	81.7
CCc1cncnc1N1CCN(Cc2nc3ccc(C(F)(F)F)cc3[nH]2)CC1 (1000 nM)	98.9
COc1cc2c(Oc3ccc4[nH]c(C)cc4c3F)ncnc2cc1OCCCN1CCCC1 [Cediranib] (100 nM)	113
CC[C@@H]1C(=O)N(C)c2cnc(Nc3ccc(C(=O)NC4CCN(C)CC4)cc3OC)nc2N1C1CCCC1 [BI 2536] (100 nM)	24.3
O=C(O)CCCCC(CCSCc1ccccc1)SCc1ccccc1 (centres undefined) [CPI-613] (1000 nM)	109
Nc1ncn([C@H]2C[C@H](O)[C@@H](CO)O2)c(=O)n1 [Decitabine] (1000 nM)	121

Test system: MDA-MB-436
Assay: as above
Settings: incubation time: 72 h
Procedure, shortened: as §1

Compound	normalised response [%]
COc1cc2c(NC3CCN(C(C)C)CC3)nc(C3CCCCC3)nc2cc1OCCCN1CCCC1 [UNC0638] (1000 nM)	92.5
CCc1cncnc1N1CCN(Cc2nc3ccc(C(F)(F)F)cc3[nH]2)CC1 (1000 nM)	84.2
COc1cc2c(Oc3ccc4[nH]c(C)cc4c3F)ncnc2cc1OCCCN1CCCC1 [Cediranib] (100 nM)	90.2
CC[C@@H]1C(=O)N(C)c2cnc(Nc3ccc(C(=O)NC4CCN(C)CC4)cc3OC)nc2N1C1CCCC1 [BI 2536] (100 nM)	82.5
O=C(O)CCCCC(CCSCc1ccccc1)SCc1ccccc1 (centres undefined) [CPI-613] (1000 nM)	81.4
Nc1ncn([C@H]2C[C@H](O)[C@@H](CO)O2)c(=O)n1 [Decitabine] (1000 nM)	100

Test system: MDA-MB-453
Assay: as above
Settings: incubation time: 72 h
Procedure, shortened: as §1

Compound	normalised response [%]
COc1cc2c(NC3CCN(C(C)C)CC3)nc(C3CCCCC3)nc2cc1OCCCN1CCCC1 [UNC0638] (1000 nM)	95.8
CCc1cncnc1N1CCN(Cc2nc3ccc(C(F)(F)F)cc3[nH]2)CC1 (1000 nM)	94.2
COc1cc2c(Oc3ccc4[nH]c(C)cc4c3F)ncnc2cc1OCCCN1CCCC1 [Cediranib] (100 nM)	105
CC[C@@H]1C(=O)N(C)c2cnc(Nc3ccc(C(=O)NC4CCN(C)CC4)cc3OC)nc2N1C1CCCC1 [BI 2536] (100 nM)	103
O=C(O)CCCCC(CCSCc1ccccc1)SCc1ccccc1 (centres undefined) [CPI-613] (1000 nM)	103
Nc1ncn([C@H]2C[C@H](O)[C@@H](CO)O2)c(=O)n1 [Decitabine] (1000 nM)	84.1

Test system: MDA-MB-468
Assay: as above
Settings: incubation time: 72 h
Procedure, shortened: as §1

Compound	normalised response [%]
COc1cc2c(NC3CCN(C(C)C)CC3)nc(C3CCCCC3)nc2cc1OCCCN1CCCC1 [UNC0638] (1000 nM)	143
CCc1cncnc1N1CCN(Cc2nc3ccc(C(F)(F)F)cc3[nH]2)CC1 (1000 nM)	114
COc1cc2c(Oc3ccc4[nH]c(C)cc4c3F)ncnc2cc1OCCCN1CCCC1 [Cediranib] (100 nM)	98.6
CC[C@@H]1C(=O)N(C)c2cnc(Nc3ccc(C(=O)NC4CCN(C)CC4)cc3OC)nc2N1C1CCCC1 [BI 2536] (100 nM)	73.3
O=C(O)CCCCC(CCSCc1ccccc1)SCc1ccccc1 (centres undefined) [CPI-613] (1000 nM)	114
Nc1ncn([C@H]2C[C@H](O)[C@@H](CO)O2)c(=O)n1 [Decitabine] (1000 nM)	115

Test system: MFM-223
Assay: as above
Settings: incubation time: 72 h
Procedure, shortened: as §1

Compound	normalised response [%]
COc1cc2c(NC3CCN(C(C)C)CC3)nc(C3CCCCC3)nc2cc1OCCCN1CCCC1 [UNC0638] (1000 nM)	95.7
CCc1cncnc1N1CCN(Cc2nc3ccc(C(F)(F)F)cc3[nH]2)CC1 (1000 nM)	101
COc1cc2c(Oc3ccc4[nH]c(C)cc4c3F)ncnc2cc1OCCCN1CCCC1 [Cediranib] (100 nM)	84.1
CC[C@@H]1C(=O)N(C)c2cnc(Nc3ccc(C(=O)NC4CCN(C)CC4)cc3OC)nc2N1C1CCCC1 [BI 2536] (100 nM)	70.5
O=C(O)CCCCC(CCSCc1ccccc1)SCc1ccccc1 (centres undefined) [CPI-613] (1000 nM)	98.7
Nc1ncn([C@H]2C[C@H](O)[C@@H](CO)O2)c(=O)n1 [Decitabine] (1000 nM)	93.6

Test system: BT-474
Assay: normalised response (% of control), CellTiter-Glo; higher = more viable cells (100 = DMSO, 0 = benzethonium chloride kill control)
Settings: incubation time: 72 h
Procedure, shortened: as §1

Compound	normalised response [%]
COc1cc2c(NC3CCN(C(C)C)CC3)nc(C3CCCCC3)nc2cc1OCCCN1CCCC1 [UNC0638] (1000 nM)	92.4
CCc1cncnc1N1CCN(Cc2nc3ccc(C(F)(F)F)cc3[nH]2)CC1 (1000 nM)	96.7
COc1cc2c(Oc3ccc4[nH]c(C)cc4c3F)ncnc2cc1OCCCN1CCCC1 [Cediranib] (100 nM)	104
CC[C@@H]1C(=O)N(C)c2cnc(Nc3ccc(C(=O)NC4CCN(C)CC4)cc3OC)nc2N1C1CCCC1 [BI 2536] (100 nM)	55.9
O=C(O)CCCCC(CCSCc1ccccc1)SCc1ccccc1 (centres undefined) [CPI-613] (1000 nM)	98.5
Nc1ncn([C@H]2C[C@H](O)[C@@H](CO)O2)c(=O)n1 [Decitabine] (1000 nM)	90.3
